Test results reported in the supplement of paper PMC8612539.
≈ marks a conversion by molar mass, not a printed value.

Test system: Escherichia coli
Test: minimum inhibitory concentration (MIC)
Experimental: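 Broth microdilution MIC (Sensititre BOPO7F bovine plate, CLSI methods) of 19 antimicrobials against field isolates of P. multocida, M. haemolytica, H. somni (deep nasopharyngeal swabs) and E. coli, Enterococcus spp. (rectal swabs) from weaned dairy heifers. Incubation 16-24 h at 35 C. MIC is the lowest concentration preventing visible growth. Values with <= or > lie at the tested range limits. Trimethoprim-sulfamethoxazole is given as the trimethoprim component of a 1:19 mixture.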

CN(C)[C@@H]1C(O)=C(C(N)=O)C(=O)[C@@]2(O)C(O)=C3C(=O)c4c(O)cccc4[C@@](C)(O)[C@H]3C[C@@H]12 [Tetracycline]
Details | minimum inhibitory concentration [µg/mL]
isolate (source animal id): 8 | > 8
isolate (source animal id): 9 | > 8
isolate (source animal id): 10 | > 8
isolate (source animal id): 11 | 1 (≈ 2.25 µM)
isolate (source animal id): 12 | > 8
isolate (source animal id): 13 | > 8
isolate (source animal id): 14 | > 8
isolate (source animal id): 15 | > 8
isolate (source animal id): 16 | > 8
isolate (source animal id): 98 | > 8
isolate (source animal id): 99 | 2 (≈ 4.5 µM)
isolate (source animal id): 100 | > 8
isolate (source animal id): 101 | > 8
isolate (source animal id): 102 | > 8
isolate (source animal id): 103 | > 8
isolate (source animal id): 104 | > 8
isolate (source animal id): 105 | > 8
isolate (source animal id): 106 | > 8
isolate (source animal id): 107 | > 8
isolate (source animal id): 108 | > 8
isolate (source animal id): 109 | > 8
isolate (source animal id): 110 | > 8
isolate (source animal id): 111 | > 8
isolate (source animal id): 112 | > 8
isolate (source animal id): 113 | > 8
isolate (source animal id): 114 | > 8
isolate (source animal id): 115 | > 8
isolate (source animal id): 116 | > 8
isolate (source animal id): 117 | > 8
isolate (source animal id): 118 | > 8
isolate (source animal id): 119 | > 8
isolate (source animal id): 120 | > 8
isolate (source animal id): 121 | > 8
isolate (source animal id): 122 | > 8
isolate (source animal id): 123 | > 8
isolate (source animal id): 124 | > 8
isolate (source animal id): 125 | > 8
isolate (source animal id): 126 | > 8
isolate (source animal id): 127 | > 8
isolate (source animal id): 128 | > 8
isolate (source animal id): 129 | > 8
isolate (source animal id): 130 | > 8
isolate (source animal id): 131 | > 8
isolate (source animal id): 132 | > 8
isolate (source animal id): 133 | > 8
isolate (source animal id): 134 | > 8
isolate (source animal id): 135 | 2 (≈ 4.5 µM)
isolate (source animal id): 136 | > 8
isolate (source animal id): 137 | > 8
isolate (source animal id): 138 | > 8
isolate (source animal id): 139 | > 8
isolate (source animal id): 140 | 1 (≈ 2.25 µM)
isolate (source animal id): 141 | > 8
isolate (source animal id): 142 | > 8
isolate (source animal id): 143 | > 8
isolate (source animal id): 144 | > 8
isolate (source animal id): 145 | > 8
isolate (source animal id): 146 | > 8
isolate (source animal id): 147 | > 8
isolate (source animal id): 148 | > 8
isolate (source animal id): 149 | > 8
isolate (source animal id): 150 | > 8
isolate (source animal id): 151 | > 8
isolate (source animal id): 152 | > 8
isolate (source animal id): 153 | > 8
isolate (source animal id): 154 | > 8
isolate (source animal id): 155 | > 8
isolate (source animal id): 156 | > 8
isolate (source animal id): 157 | > 8
isolate (source animal id): 158 | > 8
isolate (source animal id): 159 | > 8
isolate (source animal id): 160 | > 8
isolate (source animal id): 161 | > 8
isolate (source animal id): 162 | > 8
isolate (source animal id): 163 | > 8
isolate (source animal id): 164 | > 8
isolate (source animal id): 165 | > 8
isolate (source animal id): 166 | > 8
isolate (source animal id): 167 | > 8
isolate (source animal id): 168 | 1 (≈ 2.25 µM)
isolate (source animal id): 169 | 1 (≈ 2.25 µM)
isolate (source animal id): 170 | > 8
isolate (source animal id): 171 | 1 (≈ 2.25 µM)
isolate (source animal id): 172 | 1 (≈ 2.25 µM)
isolate (source animal id): 173 | > 8
isolate (source animal id): 174 | > 8
isolate (source animal id): 175 | > 8
isolate (source animal id): 176 | > 8
isolate (source animal id): 177 | > 8
isolate (source animal id): 178 | > 8
isolate (source animal id): 179 | 1 (≈ 2.25 µM)
isolate (source animal id): 180 | > 8
isolate (source animal id): 181 | > 8
isolate (source animal id): 182 | > 8
isolate (source animal id): 183 | > 8
isolate (source animal id): 184 | > 8
isolate (source animal id): 185 | > 8
isolate (source animal id): 186 | 1 (≈ 2.25 µM)
isolate (source animal id): 187 | > 8
isolate (source animal id): 188 | > 8

CC[C@H]1OC(=O)C[C@@H](O)[C@H](C)[C@@H](O[C@@H]2O[C@H](C)[C@@H](O)[C@H](N(C)C)[C@H]2O)[C@@H](CCN2CCCCC2)C[C@@H](C)C(=O)/C=C/C(C)=C/[C@@H]1CN1CCCCC1 [Tildipirosin]
Details | minimum inhibitory concentration [µg/mL]
isolate (source animal id): 8 | 4 (≈ 5.45 µM)
isolate (source animal id): 9 | 16 (≈ 21.8 µM)
isolate (source animal id): 10 | 8 (≈ 10.9 µM)
isolate (source animal id): 11 | 4 (≈ 5.45 µM)
isolate (source animal id): 12 | 4 (≈ 5.45 µM)
isolate (source animal id): 13 | 4 (≈ 5.45 µM)
isolate (source animal id): 14 | 4 (≈ 5.45 µM)
isolate (source animal id): 15 | 4 (≈ 5.45 µM)
isolate (source animal id): 16 | 4 (≈ 5.45 µM)
isolate (source animal id): 98 | 4 (≈ 5.45 µM)
isolate (source animal id): 99 | 4 (≈ 5.45 µM)
isolate (source animal id): 100 | 2 (≈ 2.72 µM)
isolate (source animal id): 101 | 4 (≈ 5.45 µM)
isolate (source animal id): 102 | 4 (≈ 5.45 µM)
isolate (source animal id): 103 | 4 (≈ 5.45 µM)
isolate (source animal id): 104 | 4 (≈ 5.45 µM)
isolate (source animal id): 105 | 4 (≈ 5.45 µM)
isolate (source animal id): 106 | 16 (≈ 21.8 µM)
isolate (source animal id): 107 | 8 (≈ 10.9 µM)
isolate (source animal id): 108 | 4 (≈ 5.45 µM)
isolate (source animal id): 109 | 4 (≈ 5.45 µM)
isolate (source animal id): 110 | 4 (≈ 5.45 µM)
isolate (source animal id): 111 | 4 (≈ 5.45 µM)
isolate (source animal id): 112 | 4 (≈ 5.45 µM)
isolate (source animal id): 113 | 4 (≈ 5.45 µM)
isolate (source animal id): 114 | 4 (≈ 5.45 µM)
isolate (source animal id): 115 | 8 (≈ 10.9 µM)
isolate (source animal id): 116 | 4 (≈ 5.45 µM)
isolate (source animal id): 117 | > 16
isolate (source animal id): 118 | 8 (≈ 10.9 µM)
isolate (source animal id): 119 | 8 (≈ 10.9 µM)
isolate (source animal id): 120 | 4 (≈ 5.45 µM)
isolate (source animal id): 121 | 4 (≈ 5.45 µM)
isolate (source animal id): 122 | 4 (≈ 5.45 µM)
isolate (source animal id): 123 | 4 (≈ 5.45 µM)
isolate (source animal id): 124 | 2 (≈ 2.72 µM)
isolate (source animal id): 125 | ≤ 1
isolate (source animal id): 126 | 4 (≈ 5.45 µM)
isolate (source animal id): 127 | 8 (≈ 10.9 µM)
isolate (source animal id): 128 | 4 (≈ 5.45 µM)
isolate (source animal id): 129 | 4 (≈ 5.45 µM)
isolate (source animal id): 130 | 4 (≈ 5.45 µM)
isolate (source animal id): 131 | 2 (≈ 2.72 µM)
isolate (source animal id): 132 | 4 (≈ 5.45 µM)
isolate (source animal id): 133 | 4 (≈ 5.45 µM)
isolate (source animal id): 134 | 4 (≈ 5.45 µM)
isolate (source animal id): 135 | 4 (≈ 5.45 µM)
isolate (source animal id): 136 | 4 (≈ 5.45 µM)
isolate (source animal id): 137 | 4 (≈ 5.45 µM)
isolate (source animal id): 138 | 4 (≈ 5.45 µM)
isolate (source animal id): 139 | 2 (≈ 2.72 µM)
isolate (source animal id): 140 | 4 (≈ 5.45 µM)
isolate (source animal id): 141 | 4 (≈ 5.45 µM)
isolate (source animal id): 142 | 4 (≈ 5.45 µM)
isolate (source animal id): 143 | 8 (≈ 10.9 µM)
isolate (source animal id): 144 | 4 (≈ 5.45 µM)
isolate (source animal id): 145 | 4 (≈ 5.45 µM)
isolate (source animal id): 146 | 8 (≈ 10.9 µM)
isolate (source animal id): 147 | 2 (≈ 2.72 µM)
isolate (source animal id): 148 | 4 (≈ 5.45 µM)
isolate (source animal id): 149 | 4 (≈ 5.45 µM)
isolate (source animal id): 150 | 4 (≈ 5.45 µM)
isolate (source animal id): 151 | 4 (≈ 5.45 µM)
isolate (source animal id): 152 | 4 (≈ 5.45 µM)
isolate (source animal id): 153 | 4 (≈ 5.45 µM)
isolate (source animal id): 154 | 4 (≈ 5.45 µM)
isolate (source animal id): 155 | 4 (≈ 5.45 µM)
isolate (source animal id): 156 | 4 (≈ 5.45 µM)
isolate (source animal id): 157 | 4 (≈ 5.45 µM)
isolate (source animal id): 158 | 4 (≈ 5.45 µM)
isolate (source animal id): 159 | 4 (≈ 5.45 µM)
isolate (source animal id): 160 | 4 (≈ 5.45 µM)
isolate (source animal id): 161 | 2 (≈ 2.72 µM)
isolate (source animal id): 162 | 4 (≈ 5.45 µM)
isolate (source animal id): 163 | 4 (≈ 5.45 µM)
isolate (source animal id): 164 | 4 (≈ 5.45 µM)
isolate (source animal id): 165 | 4 (≈ 5.45 µM)
isolate (source animal id): 166 | 4 (≈ 5.45 µM)
isolate (source animal id): 167 | 8 (≈ 10.9 µM)
isolate (source animal id): 168 | 4 (≈ 5.45 µM)
isolate (source animal id): 169 | 4 (≈ 5.45 µM)
isolate (source animal id): 170 | 4 (≈ 5.45 µM)
isolate (source animal id): 171 | 4 (≈ 5.45 µM)
isolate (source animal id): 172 | 4 (≈ 5.45 µM)
isolate (source animal id): 173 | 4 (≈ 5.45 µM)
isolate (source animal id): 174 | 4 (≈ 5.45 µM)
isolate (source animal id): 175 | 8 (≈ 10.9 µM)
isolate (source animal id): 176 | 8 (≈ 10.9 µM)
isolate (source animal id): 177 | 4 (≈ 5.45 µM)
isolate (source animal id): 178 | 4 (≈ 5.45 µM)
isolate (source animal id): 179 | 4 (≈ 5.45 µM)
isolate (source animal id): 180 | 4 (≈ 5.45 µM)
isolate (source animal id): 181 | 16 (≈ 21.8 µM)
isolate (source animal id): 182 | 8 (≈ 10.9 µM)
isolate (source animal id): 183 | 4 (≈ 5.45 µM)
isolate (source animal id): 184 | 8 (≈ 10.9 µM)
isolate (source animal id): 185 | 4 (≈ 5.45 µM)
isolate (source animal id): 186 | 4 (≈ 5.45 µM)
isolate (source animal id): 187 | 2 (≈ 2.72 µM)
isolate (source animal id): 188 | 4 (≈ 5.45 µM)
